Counter-ions that a name gives are not always drawn. Like-named read-outs stand apart in the source and are kept apart here.
Key:
L1210 cells [1] = assay: L1210 growth inhibition, IC50 determination; format: cell-based, murine
Experimental: Murine L1210 leukemia cells (ATCC CCL 219) were maintained in logarithmic growth in RPMI-1640 medium containing 10% fetal calf serum or a semi-synthetic equivalent, NuSerum, 2% HEPES-MOPS buffer and 1 mM aminoguanidine.

L1210 cells [2] = assay: Metabolic transformation of polyamine analogues by L1210 cells; format: in vitro ADME, murine; conditions: 48 hours
Experimental: (§1) The cells were washed twice with cold RPMI-1640, and the pellet was treated with 0.6 N HClO4 (1 ml/10^7 cells). Polyamine contents of the perchloric acid extracts were quantitated by HPLC of the DANSYL derivatives [Bergeron et al, J. Med. Chem., Vol. 37, supra].

[3] = test system: spermidine/spermine acetyltransferase (SSAT); assay: SSAT activity in treated L1210 cells; format: cell-based, murine; conditions: L1210, 10 μM at 48 hours (triamine analogues)
Text: Spermidine/spermine N^1-acetyltransferase activity was based on quantitation of [^14C]-N^1-acetylspermidine formed by acetylation of SPD with [^14C] acetyl coenzyme A according to the method of Libby et al [Biochem. Pharmacol., Vol. 38, supra]. Cells treated with DENSPM were positive controls.

[4] = test system: polyamine transport apparatus; assay: Competitive uptake determination: inhibition of [3H]spermidine transport into L1210 cells; format: cell-based, murine; conditions: analogue inhibition of spermidine transport
Experimental: The ability of the norspermidines, spermidines, homospermidines, 4,5- and 5,5-triamines to compete with radiolabeled SPD for uptake was evaluated (Table 1). The general trend is that the terminally alkylated triamines have higher Ki values than the unalkylated triamines and are thus less easily taken up by the cell. […] This is not completely true with the norspermidines and the 5,5 triamines. The relationship holds with methyl and ethyl but not for the propyl of the latter two systems. Finally, the number of methylenes separating the amines plays a role in determining polyamine uptake properties. In general the effectiveness with which the analogues compete for uptake is spermidines≈homospermidines>4,5 triamines>5,5 triamines>norspermidine.
The polyamine derivatives were studied for their ability to compete with [^3H]-SPD for uptake into L1210 cells [Bergeron et al, J. Med. Chem., Vol. 37, supra]. Lineweaver-Burk plots indicated a simple competitive inhibition with respect to SPD.

[5] = test system: ornithine decarboxylase (ODC); assay: ODC activity in treated L1210 cells; format: cell-based, murine; conditions: L1210, 1 μM at 4 hours
Experimental: (§2) On the basis of these studies, it was elected to evaluate the impact of the triamines on ODC and AdoMetDC at 4 and 6 hours, respectively.
(§3) ODC and AdoMetDC activities were determined as ^14CO2 released from [^14C]-carboxyl-labeled L-ornithine [Seely et al, “Ornithine Decarboxylase (Mouse Kidney),” Methods Enzymol., Vol. 94, pages 158-161 (1983)] or S-adenosyl-L-methionine [Pegg et al, “S-Adenosylmethionine Decarboxylase (Rat Liver),” Methods Enzymol., Vol. 94, pages 234-239 (1983)], respectively. Included in each assay were untreated L1210 cells as controls, as well as cells treated with DEHSPM, a drug having a known reproducible effect on each enzyme, as positive controls.

[6] = test system: S-adenosylmethionine decarboxylase (AdoMetDC); assay: AdoMetDC activity in treated L1210 cells; format: cell-based, murine; conditions: L1210, 1 μM at 6 hours
Experimental: as §2, §3

L1210 cells [7] = assay: Polyamine pool analysis in L1210 cells; format: cell-based, murine; conditions: for activity at 100 µM / activity at 500 µM / activity at 2 µM / activity at 10 µM / activity at 15 µM / activity at 75 µM: Mus musculus, L1210, 48 h, % of untreated control; for Analogue: intracellular amount, 48 hours
Experimental: The following guidelines were adopted for studying the impact of the analogues on polyamine pools (Table 2). The measurements were made after a 48-hour exposure to the analogue, and two different concentrations of analogue were evaluated in each case.
as §1

[8] = Mus musculus, L1210, 48 h, L1210, 48 hour exposure, read-out: IC50 48 hour
[9] = Mus musculus, L1210, 96 h, L1210, 96 hour exposure, read-out: IC50 96 hour

Compound | IC50 (L1210 cells [1]; [8]) | IC50 (L1210 cells [1]; [9]) | Analogue (L1210 cells [7]; 100 μM) | Analogue (L1210 cells [7]; 500 μM) | N-Monodealkylation (result in words) (L1210 cells [2]; 100 μM analogue) | Parent drug as % of total drug in the cell (L1210 cells [2]; 100 μM analogue) | Parent drug in L1210 cells (L1210 cells [2]; 100 μM analogue) | SSAT activity, percent of untreated control [3] | Ki [4] | ODC activity, percent of untreated control [5] | AdoMetDC activity, percent of untreated control [6] | activity at 100 µM (L1210 cells [7]; 100 μM, read-out: Put) | activity at 100 µM (L1210 cells [7]; 100 μM, read-out: Spd) | activity at 100 µM (L1210 cells [7]; 100 μM, read-out: Spm) | activity at 500 µM (L1210 cells [7]; 500 μM, read-out: Put) | activity at 500 µM (L1210 cells [7]; 500 μM, read-out: Spd) | activity at 500 µM (L1210 cells [7]; 500 μM, read-out: Spm) | further results
CCNCCCNCCCNCC [DENSPD, N^1,N^7-Diethylnorspermidine Trihydrochloride] | > 100 µM | 10 µM | 3.67 nmol/10^6 cells | 3.77 nmol/10^6 cells |  |  |  | 780% of untreated control | 250 µM | 80% of untreated control | 45% of untreated control | 0% | 17% | 74% | 0% | 6 to 15% | < 50% | Parent drug as % of total drug in the cell (L1210 cells [2]; 500 μM analogue): 90.7%; Parent drug in L1210 cells (L1210 cells [2]; 500 μM analogue): 3761 pmols/10^6
CNCCCCCNCCCCNC [DM(4,5), 2,7,13-Triazatetradecane Trihydrochloride] | 2 to 6 µM | 0.11 to 0.12 µM |  |  |  |  |  | 130% of untreated control | 21 µM | 56% of untreated control | 71% of untreated control |  |  |  |  |  |  | IC50 (L1210 cells [1]; L1210, 48 hour exposure, Trihydrochloride, read-out: IC50 48 hour): 2 µM; N-Monodealkylation (result in words) (L1210 cells [2]; 2 μM analogue): no N-demethylation; Parent drug as % of total drug in the cell (L1210 cells [2]; 2 μM analogue): 100%; Parent drug in L1210 cells (L1210 cells [2]; 2 μM analogue): 2790 pmols/10^6; activity at 2 µM (L1210 cells [7]; 2 μM, read-out: Put): 0%; activity at 2 µM (L1210 cells [7]; 2 μM, read-out: Spd): 33%; activity at 2 µM (L1210 cells [7]; 2 μM, read-out: Spm): 112%; activity at 10 µM (L1210 cells [7]; 10 μM, read-out: Put): 0%; activity at 10 µM (L1210 cells [7]; 10 μM, read-out: Spd): 18%; activity at 10 µM (L1210 cells [7]; 10 μM, read-out: Spm): 111%; Analogue (L1210 cells [7]; 2 μM): 2.79 nmol/10^6 cells; Analogue (L1210 cells [7]; 10 μM): 5.36 nmol/10^6 cells
CNCCCCCNCCCCCNC [DM(5,5), 2,8,14-Triazapentadecane Trihydrochloride] | 15 µM | 0.4 µM |  |  |  |  |  | 90% of untreated control | 133 µM | 105% of untreated control | 97% of untreated control |  |  |  |  |  |  | N-Monodealkylation (result in words) (L1210 cells [2]; 15 μM analogue): no N-demethylation; Parent drug as % of total drug in the cell (L1210 cells [2]; 15 μM analogue): 100%; Parent drug in L1210 cells (L1210 cells [2]; 15 μM analogue): 2560 pmols/10^6; activity at 15 µM (L1210 cells [7]; 15 μM, read-out: Put): 0%; activity at 15 µM (L1210 cells [7]; 15 μM, read-out: Spd): 33%; activity at 15 µM (L1210 cells [7]; 15 μM, read-out: Spm): 115%; activity at 75 µM (L1210 cells [7]; 75 μM, read-out: Put): 0%; activity at 75 µM (L1210 cells [7]; 75 μM, read-out: Spd): 20%; activity at 75 µM (L1210 cells [7]; 75 μM, read-out: Spm): 101%; Analogue (L1210 cells [7]; 15 μM): 2.56 nmol/10^6 cells; Analogue (L1210 cells [7]; 75 μM): 3.61 nmol/10^6 cells

The next lines start with results.

IC50 (L1210 cells [1]; [8]) | IC50 (L1210 cells [1]; [9]) | Analogue (L1210 cells [7]; 100 μM) | Analogue (L1210 cells [7]; 500 μM) | N-Monodealkylation (result in words) (L1210 cells [2]; 100 μM analogue) | Parent drug as % of total drug in the cell (L1210 cells [2]; 100 μM analogue) | Parent drug in L1210 cells (L1210 cells [2]; 100 μM analogue) | Compound | SSAT activity, percent of untreated control [3] | Ki [4] | ODC activity, percent of untreated control [5] | AdoMetDC activity, percent of untreated control [6] | activity at 100 µM (L1210 cells [7]; 100 μM, read-out: Put) | activity at 100 µM (L1210 cells [7]; 100 μM, read-out: Spd) | activity at 100 µM (L1210 cells [7]; 100 μM, read-out: Spm) | activity at 500 µM (L1210 cells [7]; 500 μM, read-out: Put) | activity at 500 µM (L1210 cells [7]; 500 μM, read-out: Spd) | activity at 500 µM (L1210 cells [7]; 500 μM, read-out: Spm) | further results
> 100 µM | 0.9 µM | 5.51 nmol/10^6 cells | 5.85 nmol/10^6 cells | no N-demethylation | 100% | 5500 pmols/10^6 | CNCCCCNCCCCNC [DMHSPD, N^1,N^9-Dimethylhomospermidine Trihydrochloride] | 510% of untreated control | 5.5 µM | 20% of untreated control | 86% of untreated control | 0% | 3% | 106% | 0% | 0% | 106% | 
> 100 µM | 3.5 to 6 µM | 5.00 nmol/10^6 cells | 5.51 nmol/10^6 cells | no N-demethylation | 100% | 5000 pmols/10^6 | CNCCCNCCCNC [DMNSPD, N^1,N^7-Dimethylnorspermidine Trihydrochloride] | 250% of untreated control | 60 µM | 17% of untreated control | 41% of untreated control | 0% | 9% | 58% | 0% | 6 to 15% | < 50% | 
> 100 µM | 1.5 to 1.8 µM | 4.96 nmol/10^6 cells | 4.89 nmol/10^6 cells | no N-demethylation | 100% | 5000 pmols/10^6 | CNCCCCNCCCNC [DMSPD, N^1,N^8-Dimethylspermidine Trihydrochloride] | 270% of untreated control | 5.1 µM |  | 68% of untreated control | 0% | 5% | 58% | 0% | 0% | 54% | ODC activity, percent of untreated control ([5]; Trihydrochloride): 22% of untreated control
~100 µM | < 2 µM | 1.40 nmol/10^6 cells | 2.42 nmol/10^6 cells |  | 69.7% | 1325 pmols/10^6 | CCCNCCCCCNCCCCNCCC [DP(4,5), 4,9,15-Triazaoctadecane Trihydrochloride] | 80% of untreated control | 75 µM | 83% of untreated control | 86% of untreated control | 0% | 40% | 119% | 0% | 31% | 121% | IC50 (L1210 cells [1]; L1210, 96 hour exposure, Trihydrochloride, read-out: IC50 96 hour): 1 to 1.4 µM; Elaboration to tetraamine (result in words) (L1210 cells [2]; 100 μM analogue): no elaboration of N-Monoalkyl [5,4]
